According to the NIST ThermoML archive (doi:10.1016/j.jct.2018.07.026):

What was measured:
[1] = Crystal 1; DTA
[2] = Molar enthalpy of transition or fusion; details: Crystal 1; DSC
[3] = molar heat capacity at constant pressure; details: 78.8 kPa, Crystal, DSC

O=C(O)c1cccc([N+](=O)[O-])c1C(=O)O [3-nitro-1,2-benzenedicarboxylic acid]
Details | Molar enthalpy of transition or fusion [kcal/mol] | Normal melting temperature [°C]
[1] | – | 223.2
[2] | 13.2 | –

[3]
Details | molar heat capacity at constant pressure [J/K/mol]
295.15 K | 242.66
296.15 K | 244.28
297.15 K | 245.61
298.15 K | 246.53
299.15 K | 247.02
300.15 K | 248.36
301.15 K | 249.69
302.15 K | 250.75
303.15 K | 251.67
304.15 K | 252.72
305.15 K | 253.35
306.15 K | 253.99
307.15 K | 254.41
308.15 K | 254.83
309.15 K | 255.47
310.15 K | 256.8
311.15 K | 255.96
312.15 K | 257.22
313.15 K | 258
314.15 K | 258.77
315.15 K | 259.12
316.15 K | 260.18
317.15 K | 260.67
318.15 K | 261.31
319.15 K | 261.94
320.15 K | 262.71
321.15 K | 263.56
322.15 K | 264.19
323.15 K | 264.97
324.15 K | 265.67
325.15 K | 266.44
326.15 K | 266.94
327.15 K | 267.57
328.15 K | 268.41
329.15 K | 268.77
330.15 K | 269.4
331.15 K | 269.96
332.15 K | 270.6
333.15 K | 271.23
334.15 K | 271.79
335.15 K | 272.36
336.15 K | 273.27
337.15 K | 272.43
338.15 K | 273.83
339.15 K | 274.4
340.15 K | 275.03
341.15 K | 275.66
342.15 K | 276.44
343.15 K | 277.14
344.15 K | 277.63
345.15 K | 278.34
346.15 K | 278.97
347.15 K | 279.75
348.15 K | 280.38
349.15 K | 280.94
350.15 K | 281.5
351.15 K | 281.72
352.15 K | 282.07
353.15 K | 282.49
354.15 K | 282.91
355.15 K | 283.48
356.15 K | 284.11
357.15 K | 284.32
358.15 K | 285.02
359.15 K | 285.59
360.15 K | 286.22
361.15 K | 286.71
362.15 K | 287.21
363.15 K | 287.7
364.15 K | 288.12
365.15 K | 288.68
366.15 K | 289.32
367.15 K | 289.95
368.15 K | 290.3
369.15 K | 290.86
370.15 K | 291.29
371.15 K | 291.64
372.15 K | 292.06
373.15 K | 292.62
374.15 K | 293.26
375.15 K | 293.47
376.15 K | 294.1
377.15 K | 294.59
378.15 K | 295.23
379.15 K | 295.72
380.15 K | 296.07
381.15 K | 296.57
382.15 K | 296.99
383.15 K | 297.55
384.15 K | 297.9
385.15 K | 298.39
386.15 K | 298.68
387.15 K | 299.24
388.15 K | 299.73
389.15 K | 300.01
390.15 K | 300.86
391.15 K | 301.21
392.15 K | 301.49
393.15 K | 301.84
394.15 K | 302.2
395.15 K | 302.69
396.15 K | 303.25
397.15 K | 303.74
398.15 K | 304.45
399.15 K | 305.22
400.15 K | 305.71
401.15 K | 306.28
402.15 K | 306.84
403.15 K | 307.33
404.15 K | 307.68
405.15 K | 308.25
406.15 K | 308.74
407.15 K | 309.02
408.15 K | 309.73
409.15 K | 310.15
410.15 K | 310.64
411.15 K | 311.13
412.15 K | 311.56
